Reference: US20230293518A1 (Edgewise Therapeutics, Inc., priority 2020, published 2023)

Molecular target: skeletal myofibrils (myosin ATPase)
Test: Skeletal Myofibril ATPase Assay
Format: biochemical
Method: Example 12. Skeletal Myofibril ATPase Assay
Overview: Myosin ATPase activity is assessed by using a coupled reaction system, in which ADP generated by the myosin ATPase function is coupled to the disappearance of NADH through the pyruvate kinase/lactate dehydrogenase (PK-LDH) system. ATPase activity produces ADP, which is used as a substrate for PK to produce pyruvate and regenerate ATP. The pyruvate is then used as a substrate by LDH to oxidize NADH to NAD+. The rate of the reaction is monitored through the time-dependent disappearance of NADH using absorbance at 340 nm. Inhibition of ATPase activity by the assayed compounds is indicated by a reduced rate of NADH loss, relative to vehicle-treated controls, over the experimental time window. To assess the selectivity of the assayed compounds for skeletal myofibrils, the compounds are counter-screened in cardiac myofibrils.
Materials: The following stock solutions and reagents were used in the Skeletal Myofibril ATPase Assay:
Stock Solutions of pCa buffer. Combine PIPES, CaCl2, and EGTA solutions with 70 mL of water. Adjust pH to 7.0 and bring final volume to 100 mL.
Buffer A & Buffer B. Buffers were stored on ice until use.
Skeletal Myofibril ATPase Assay Procedure: BSA, ATP, NADH, PEP, and DTT solutions were thawed at room temperature, then transferred to ice. Pellet-frozen myofibrils were transferred with approximately twice the required volume into a sufficiently large tube and capped. Myofibrils were thawed by rolling in a water bath for approximately 15 min at room temperature and cooled on ice. Buffers A and B were prepared by adjusting volumes as necessary for required number of wells and stored on ice. 0.5 μL of the compounds to be assayed were added into wells. 25 μL of Buffer A was dispensed into the wells, followed by 25 μL of Buffer B. The wells were measured for absorbance at 340 nm, using a kinetic protocol in which the wells are read every 1.5-2 min for 45 min. The slope of the data was approximated by subtracting the minimum absorbance value from the maximum value for each well. This was accomplished either in the SoftMax Pro software or in a spreadsheet program such as Excel. Using GraphPad Prism 8.0, the data was normalized by assigning a value of 100% to the 1% DMSO vehicle wells. Typically, a normalized 0% value was simply assigned to a (Max−Min) value of 0. The normalized data was fit to a Four Parameter Logistic sigmoidal equation, constraining the bottom to be 0 or greater. Compounds of Table 1, 2, and 3 were tested and results of the assay appear in Tables 4a-4c. A=IC50 is less than or equal to 10 μM; B═IC50 is greater than 10 μM and less than 100 μM; C═IC50 is greater than 100 μM.

Row | SMILES | IC50 (Table 4C) | IC50 (Table 4A)
1 | CC(C)[C@@](C)(C#N)NC(=O)Cn1nc(-c2ccc(OC(F)F)nc2)ccc1=O (stereo in doubt) [Compound I-34, N-(2-cyano-3-methylbutan-2-yl)-2-(3-(6-(difluoromethoxy)pyridin-3-yl)-6-oxopyridazin-1(6H)-yl)acetamide] |  | 10 to 100 µM
2 | COc1ccc(-c2ccc(=O)n(CC(=O)NCc3ccccc3Cl)n2)cn1 [Compound I-5, N-(2-chlorobenzyl)-2-(3-(6-methoxypyridin-3-yl)-6-oxopyridazin-1(6H)-yl)acetamide] |  | < 10 µM
3 | CCNC(=O)Cn1nc(-c2ccc(N3CC(F)(F)C3)nc2)ccc1=O [Compound I-6, 2-(3-(6-(3,3-difluoroazetidin-1-yl)pyridin-3-yl)-6-oxopyridazin-1(6H)-yl)-N-ethylacetamide] |  | 10 to 100 µM
4 | CCNC(=O)Cn1nc(-c2ccc(OC(F)F)nc2)ccc1=O [Compound I-7, 2-[3-[6-(difluoromethoxy)pyridin-3-yl]-6-oxo-1,6-dihydropyridazin-1-yl]-N-ethylacetamide] |  | < 10 µM
5 | CCNC(=O)Cn1nc(-c2ccc(OCCC(F)(F)F)nc2)ccc1=O [Compound I-10, N-ethyl-2-[6-oxo-3-[6-(3,3,3-trifluoropropoxy)pyridin-3-yl]-1,6-dihydropyridazin-1-yl]acetamide] |  | 10 to 100 µM
6 | O=C(Cn1nc(-c2ccc(OC(F)F)nc2)ccc1=O)NC12CC(C1)C2 [Compound I-11, N-(bicyclo[1.1.1]pentan-1-yl)-2-(3-(6-(difluoromethoxy)pyridin-3-yl)-6-oxopyridazin-1(6H)-yl)acetamide] |  | 10 to 100 µM
7 | CC1(NC(=O)Cn2nc(-c3ccc(OC(F)F)nc3)ccc2=O)CCC1 [Compound I-15, 2-(3-(6-(difluoromethoxy)pyridin-3-yl)-6-oxopyridazin-1(6H)-yl)-N-(1-methylcyclobutyl) acetamide] |  | 10 to 100 µM
8 | CCC(C)(C)NC(=O)Cn1nc(-c2ccc(OC(F)F)nc2)ccc1=O [Compound I-20, 2-(3-(6-(difluoromethoxy)pyridin-3-yl)-6-oxopyridazin-1(6H)-yl)-N-(tert-pentyl)acetamide] |  | 10 to 100 µM
9 | CCNC(=O)Cn1nc(-c2ccc(Oc3ccc(F)cc3)nc2)ccc1=O [Compound I-21, N-ethyl-2-(3-(6-(4-fluorophenoxy)pyridin-3-yl)-6-oxopyridazin-1(6H)-yl)acetamide] |  | 10 to 100 µM
10 | CCNC(=O)Cn1nc(-c2ccc(OCC3(F)COC3)nc2)ccc1=O [Compound I-23, N-ethyl-2-(3-(6-((3-fluorooxetan-3-yl)methoxy)pyridin-3-yl)-6-oxopyridazin-1(6H)-yl)acetamide] |  | 10 to 100 µM
11 | CCNC(=O)Cn1nc(-c2ccc(OCC3(C)COC3)nc2)ccc1=O [Compound I-24, N-ethyl-2-(3-(6-((3-methyloxetan-3-yl)methoxy)pyridin-3-yl)-6-oxopyridazin-1(6H)-yl)acetamide] |  | 10 to 100 µM
12 | CCNC(=O)Cn1nc(-c2ccc(OC3COC3)nc2)ccc1=O [Compound I-25, N-ethyl-2-(3-(6-(oxetan-3-yloxy)pyridin-3-yl)-6-oxopyridazin-1(6H)-yl)acetamide] |  | > 100 µM
13 | CCNC(=O)Cn1nc(-c2ccc(OCCN(C)C)nc2)ccc1=O [Compound I-26, 2-(3-(6-(2-(dimethylamino)ethoxy)pyridin-3-yl)-6-oxopyridazin-1(6H)-yl)-N-ethylacetamide] |  | > 100 µM
14 | CCNC(=O)Cn1nc(-c2ccc(OCCCN(C)C)nc2)ccc1=O [Compound I-28, 2-(3-(6-(3-(dimethylamino)propoxy)pyridin-3-yl)-6-oxopyridazin-1(6H)-yl)-N-ethylacetamide] |  | > 100 µM
15 | C[C@H](NC(=O)Cn1nc(-c2ccc(OC(F)F)nc2)ccc1=O)c1ccnn1C [Compound I-29, (S)-2-(3-(6-(difluoromethoxy)pyridin-3-yl)-6-oxopyridazin-1(6H)-yl)-N-(1-(1-methyl-1H-pyrazol-5-yl)ethyl)acetamide] |  | > 100 µM
16 | CCNC(=O)Cn1nc(-c2ccc(N3CC4(COC4)C3)nc2)ccc1=O [Compound I-31, 2-(3-(6-(2-oxa-6-azaspiro[3.3]heptan-6-yl)pyridin-3-yl)-6-oxopyridazin-1(6H)-yl)-N-ethylacetamide] |  | > 100 µM
17 | O=C(Cn1nc(-c2ccc(OC(F)F)nc2)ccc1=O)NC1CC(F)(F)C1 [Compound I-33, N-(3,3-difluorocyclobutyl)-2-(3-(6-(difluoromethoxy)pyridin-3-yl)-6-oxopyridazin-1(6H)-yl)acetamide] |  | > 100 µM

Now from value to molecule:

Row | IC50 (Table 4C) | IC50 (Table 4A) | SMILES
18 | < 10 µM |  | COc1ccc(-c2ccc(=O)n(CC(=O)NCc3cc(Cl)ccc3Cl)n2)cc1
19 |  | < 10 µM | CCNC(=O)Cn1nc(-c2cnc(Nc3ccc(Cl)cc3)nc2)ccc1=O [Compound I-1, 2-(3-(2-((4-chlorophenyl)amino)pyrimidin-5-yl)-6-oxopyridazin-1(6H)-yl)-N-ethylacetamide]
20 |  | < 10 µM | CCNC(=O)Cn1nc(-c2cnc(Nc3ccc(F)cc3)nc2)ccc1=O [Compound I-2, N-ethyl-2-(3-(2-((4-fluorophenyl)amino)pyrimidin-5-yl)-6-oxopyridazin-1(6H)-yl)acetamide]
21 |  | < 10 µM | O=C(Cn1nc(-c2ccc(OC(F)F)nc2)ccc1=O)NC1CCC1 [Compound I-4, N-cyclobutyl-2-(3-(6-(difluoromethoxy)pyridin-3-yl)-6-oxopyridazin-1(6H)-yl)acetamide]
22 |  | < 10 µM | CCNC(=O)Cn1nc(-c2cnc(OCC(F)(F)F)nc2)ccc1=O [Compound I-8, N-ethyl-2-(6-oxo-3-(2-(2,2,2-trifluoroethoxy)pyrimidin-5-yl)pyridazin-1(6H)-yl)acetamide]
23 |  | 10 to 100 µM | CCNC(=O)Cn1nc(-c2ccc(C3CC3)nc2)ccc1=O [Compound I-12, 2-(3-(6-cyclopropylpyridin-3-yl)-6-oxopyridazin-1(6H)-yl)-N-ethylacetamide]
24 |  | 10 to 100 µM | CCNC(=O)Cn1nc(-c2ccc(OCC(F)(F)F)nc2)ccc1=O [Compound I-13, N-ethyl-2-(6-oxo-3-(6-(2,2,2-trifluoroethoxy)pyridin-3-yl)pyridazin-1(6H)-yl)acetamide]
25 |  | 10 to 100 µM | CCNC(=O)Cn1nc(-c2ccc(OC(F)(F)F)nc2)ccc1=O [Compound I-14, N-ethyl-2-(6-oxo-3-(6-(trifluoromethoxy)pyridin-3-yl)pyridazin-1(6H)-yl)acetamide]
26 |  | 10 to 100 µM | COc1ccc(-c2ccc(=O)n(CC(=O)NC(C)C)n2)cn1 [Compound I-16, N-isopropyl-2-(3-(6-methoxypyridin-3-yl)-6-oxopyridazin-1(6H)-yl)acetamide]
27 |  | 10 to 100 µM | O=C(Cn1nc(-c2ccc(OC(F)F)nc2)ccc1=O)N[C@H]1CC12CC2 [Compound I-17, (S)-2-(3-(6-(difluoromethoxy)pyridin-3-yl)-6-oxopyridazin-1(6H)-yl)-N-(spiro[2.2]pentan-1-yl)acetamide]
28 |  | 10 to 100 µM | CCNC(=O)Cn1nc(-c2ccc(N3CC(C)(C)C3)nc2)ccc1=O [Compound I-18, 2-(3-(6-(3,3-dimethylazetidin-1-yl)pyridin-3-yl)-6-oxopyridazin-1(6H)-yl)-N-ethylacetamide]
29 |  | 10 to 100 µM | CCNC(=O)Cn1nc(-c2ccc(N3CCC34COC4)nc2)ccc1=O [Compound I-19, 2-(3-(6-(6-oxa-1-azaspiro[3.3]heptan-1-yl)pyridin-3-yl)-6-oxopyridazin-1(6H)-yl)-N-ethylacetamide]
30 |  | 10 to 100 µM | CCNC(=O)Cn1nc(-c2ccc(OCC3COC3)nc2)ccc1=O [Compound I-22, N-ethyl-2-(3-(6-(oxetan-3-ylmethoxy)pyridin-3-yl)-6-oxopyridazin-1(6H)-yl)acetamide]
31 |  | > 100 µM | CCNC(=O)Cn1nc(-c2ccc(OC(C)C)nc2)ccc1=O [Compound I-27, N-ethyl-2-(3-(6-isopropoxypyridin-3-yl)-6-oxopyridazin-1(6H)-yl)acetamide]
32 |  | > 100 µM | Cn1nccc1CNC(=O)Cn1nc(-c2ccc(OC(F)F)nc2)ccc1=O [Compound I-30, 2-(3-(6-(difluoromethoxy)pyridin-3-yl)-6-oxopyridazin-1(6H)-yl)-N-((1-methyl-1H-pyrazol-5-yl)methyl)acetamide]
33 |  | > 100 µM | CCNC(=O)Cn1nc(-c2ccc(N3CC4(C3)CS(=O)(=O)C4)nc2)ccc1=O [Compound I-32, 2-(3-(6-(2,2-dioxido-2-thia-6-azaspiro[3.3]heptan-6-yl)pyridin-3-yl)-6-oxopyridazin-1(6H)-yl)-N-ethylacetamide]
34 |  | 10 to 100 µM | CC(C)(C#N)NC(=O)Cn1nc(-c2ccc(OC(F)F)nc2)ccc1=O [Compound I-35, N-(2-cyanopropan-2-yl)-2-(3-(6-(difluoromethoxy)pyridin-3-yl)-6-oxopyridazin-1(6H)-yl)acetamide]
